Assay results published in article PMC5448077, “Development of an orally available inhibitor of CLK1 for skipping a mutated dystrophin exon in Duchenne muscular dystrophy” (Scientific Reports, 2017).

Key:
JNK3 = molecular target: T1, JNK3 (Homo sapiens, UniProt P53779); test: biochemical
T1 construct: gene MAPK10
Method: (§1) These assays rely on the phosphorylation of small synthetic peptides developed for each kinase, and detect activity by changes in electrophoretic mobility (MSA assay) or by binding of a fluorescently labelled peptide to a large micro-particle and concomitant polarization increases (IMAP assay). Reaction conditions for each kinase are described in Supplementary Table S5. All kinase assays were carried out at Carna Biosciences (Kobe, Japan). The inhibitory map was constructed using Kinome Render[41]. Inhibitor (4×), substrate/ATP-Metal (4×), and kinase (2×) solutions were prepared with assay buffer (20 mM HEPES, 0.01% Triton X-100, 2 mM DTT, pH 7.5) and mixed in 384-well plates at room temperature for 1 or 5 h depending on the kinase. Reactions were stopped by the addition of termination buffer (QuickScout Screening Assist MSA; Carna Biosciences). The entire reaction mixture was then applied to a LabChip system (Perkin-Elmer, Waltham, MA, USA) and the product and substrate peptide peaks were separated and quantified, and then heights of product (P) and substrate (S) peptide peaks were calculated. The level of kinase activity was evaluated with the following equation: activity = P/(P + S).

AurA/TPX2 = molecular target: T2, AurA/TPX2 (Homo sapiens, UniProt O14965); test: biochemical
T2 construct: gene AURKA
Method: as §1

CaMK1δ = molecular target: T3, CaMK1δ (Homo sapiens, UniProt Q8IU85); test: biochemical
T3 construct: gene CAMK1D
Method: as §1

HIPK2 = HIPK2 (Homo sapiens, UniProt Q9H2X6); test: biochemical
HIPK2, sequence (Q9H2X6 whole entry): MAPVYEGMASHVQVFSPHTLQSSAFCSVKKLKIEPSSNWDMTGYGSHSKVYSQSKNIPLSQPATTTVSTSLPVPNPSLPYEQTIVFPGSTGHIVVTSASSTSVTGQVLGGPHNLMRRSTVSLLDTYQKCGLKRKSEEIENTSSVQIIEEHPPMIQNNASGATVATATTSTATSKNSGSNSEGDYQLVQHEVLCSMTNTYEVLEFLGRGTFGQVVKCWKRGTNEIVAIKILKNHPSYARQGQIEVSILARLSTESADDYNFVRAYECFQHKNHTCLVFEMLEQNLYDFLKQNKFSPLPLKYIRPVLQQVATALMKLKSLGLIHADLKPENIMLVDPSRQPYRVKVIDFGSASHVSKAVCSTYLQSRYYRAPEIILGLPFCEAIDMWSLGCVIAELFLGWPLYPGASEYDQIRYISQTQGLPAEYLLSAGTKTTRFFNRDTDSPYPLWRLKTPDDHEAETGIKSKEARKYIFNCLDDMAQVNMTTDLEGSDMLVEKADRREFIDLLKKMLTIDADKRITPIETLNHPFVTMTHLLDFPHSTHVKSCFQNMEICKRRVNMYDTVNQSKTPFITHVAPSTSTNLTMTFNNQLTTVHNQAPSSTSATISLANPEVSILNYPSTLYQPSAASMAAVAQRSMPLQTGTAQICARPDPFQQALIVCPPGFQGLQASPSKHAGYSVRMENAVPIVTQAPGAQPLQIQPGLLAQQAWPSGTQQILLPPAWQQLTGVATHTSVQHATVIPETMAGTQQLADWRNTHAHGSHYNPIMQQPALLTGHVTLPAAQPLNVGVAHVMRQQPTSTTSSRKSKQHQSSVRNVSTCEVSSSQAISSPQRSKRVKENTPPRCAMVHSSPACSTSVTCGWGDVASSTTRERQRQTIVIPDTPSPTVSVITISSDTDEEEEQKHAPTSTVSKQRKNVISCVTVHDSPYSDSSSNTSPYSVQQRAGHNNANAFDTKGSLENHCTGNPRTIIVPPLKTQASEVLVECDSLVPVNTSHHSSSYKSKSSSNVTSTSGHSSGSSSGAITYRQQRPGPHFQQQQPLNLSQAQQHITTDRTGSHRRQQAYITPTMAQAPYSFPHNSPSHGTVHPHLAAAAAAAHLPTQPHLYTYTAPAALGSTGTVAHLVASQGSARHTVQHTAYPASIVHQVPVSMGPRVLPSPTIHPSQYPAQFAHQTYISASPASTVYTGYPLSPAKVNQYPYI
Method: as §1

MSK1 = molecular target: T4, MSK1 (Homo sapiens, UniProt O75582); test: biochemical
T4 construct: gene RPS6KA5
Method: as §1

EPHA3 = EPHA3 (Homo sapiens, UniProt P29320); test: biochemical
Method: as §1

AKT2 = AKT2 (Homo sapiens, UniProt P31751); test: biochemical
Method: as §1

RET(S891A) = RET(S891A) (Homo sapiens, UniProt P07949, S891A); test: biochemical
Method: as §1

FLT4 = FLT4 (Homo sapiens, UniProt P35916); test: biochemical
FLT4, sequence (P35916 whole entry): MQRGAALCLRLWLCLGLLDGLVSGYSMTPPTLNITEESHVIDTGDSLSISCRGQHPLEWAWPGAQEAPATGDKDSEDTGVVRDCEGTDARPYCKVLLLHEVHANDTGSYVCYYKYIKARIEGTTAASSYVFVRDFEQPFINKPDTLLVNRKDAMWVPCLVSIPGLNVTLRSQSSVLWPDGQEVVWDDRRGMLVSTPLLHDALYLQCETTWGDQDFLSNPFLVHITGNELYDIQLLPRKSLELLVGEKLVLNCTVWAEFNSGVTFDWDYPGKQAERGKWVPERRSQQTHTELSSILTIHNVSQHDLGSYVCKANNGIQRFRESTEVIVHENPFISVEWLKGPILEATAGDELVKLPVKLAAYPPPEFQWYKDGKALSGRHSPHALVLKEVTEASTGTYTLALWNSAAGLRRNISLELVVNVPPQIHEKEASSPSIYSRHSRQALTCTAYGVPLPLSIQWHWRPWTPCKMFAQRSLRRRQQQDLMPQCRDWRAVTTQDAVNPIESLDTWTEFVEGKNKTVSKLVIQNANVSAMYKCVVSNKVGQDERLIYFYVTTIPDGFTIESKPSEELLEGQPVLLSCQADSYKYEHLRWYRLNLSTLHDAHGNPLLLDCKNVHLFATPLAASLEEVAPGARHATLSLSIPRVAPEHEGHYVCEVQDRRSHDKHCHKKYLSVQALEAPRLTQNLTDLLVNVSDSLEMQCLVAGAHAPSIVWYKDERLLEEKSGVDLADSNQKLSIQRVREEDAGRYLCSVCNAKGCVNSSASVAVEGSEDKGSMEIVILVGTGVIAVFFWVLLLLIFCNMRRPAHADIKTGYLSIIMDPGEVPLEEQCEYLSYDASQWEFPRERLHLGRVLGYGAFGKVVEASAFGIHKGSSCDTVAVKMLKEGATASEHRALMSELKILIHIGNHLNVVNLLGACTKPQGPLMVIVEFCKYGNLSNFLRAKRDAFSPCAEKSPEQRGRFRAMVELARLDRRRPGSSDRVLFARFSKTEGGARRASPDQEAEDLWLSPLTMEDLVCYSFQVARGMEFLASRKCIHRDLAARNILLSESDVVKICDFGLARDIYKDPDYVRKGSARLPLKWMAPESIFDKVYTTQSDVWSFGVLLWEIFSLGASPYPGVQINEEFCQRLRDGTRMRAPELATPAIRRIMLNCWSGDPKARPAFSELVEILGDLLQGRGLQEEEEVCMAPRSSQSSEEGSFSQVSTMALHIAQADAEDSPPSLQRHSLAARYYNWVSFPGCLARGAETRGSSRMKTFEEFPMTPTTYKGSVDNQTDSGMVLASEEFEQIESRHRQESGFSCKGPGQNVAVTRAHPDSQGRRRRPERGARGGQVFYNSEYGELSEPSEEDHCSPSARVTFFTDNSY
Method: as §1

LOK = molecular target: T5, LOK (Homo sapiens, UniProt O94804); test: biochemical
T5 construct: gene STK10
Method: as §1

MST3 = molecular target: T6, MST3 (Homo sapiens, UniProt Q9Y6E0); test: biochemical
T6 construct: gene STK24
Method: as §1

PDGFRβ = molecular target: T7, PDGFRβ (Homo sapiens, UniProt P09619); test: biochemical
T7 construct: gene PDGFRB
Method: as §1

PKCγ = molecular target: T8, PKCγ (Homo sapiens, UniProt P05129); test: biochemical
T8 construct: gene PRKCG
Method: as §1

p38α = molecular target: T9, p38α (Homo sapiens, UniProt Q16539); test: biochemical
T9 construct: gene MAPK14
Method: as §1

PYK2 = molecular target: T10, PYK2 (Homo sapiens, UniProt Q14289); test: biochemical
T10 construct: gene PTK2B
Method: as §1

ABL(T315I) = molecular target: T11, ABL(T315I) (Homo sapiens, UniProt P00519, T315I); test: biochemical
T11 construct: gene ABL1
Method: as §1

ALK(G1202R) = ALK(G1202R) (Homo sapiens, UniProt Q9UM73, G1202R); test: biochemical
Method: as §1

RET(G691S) = RET(G691S) (Homo sapiens, UniProt P07949, G691S); test: biochemical
Method: as §1

p38β = molecular target: T12, p38β (Homo sapiens, UniProt Q15759); test: biochemical
T12 construct: gene MAPK11
Method: as §1

TXK = TXK (Homo sapiens, UniProt P42681); test: biochemical
Method: as §1

RSK2 = molecular target: T13, RSK2 (Homo sapiens, UniProt P51812); test: biochemical
T13 construct: gene RPS6KA3
T13 sequence (P51812 whole entry): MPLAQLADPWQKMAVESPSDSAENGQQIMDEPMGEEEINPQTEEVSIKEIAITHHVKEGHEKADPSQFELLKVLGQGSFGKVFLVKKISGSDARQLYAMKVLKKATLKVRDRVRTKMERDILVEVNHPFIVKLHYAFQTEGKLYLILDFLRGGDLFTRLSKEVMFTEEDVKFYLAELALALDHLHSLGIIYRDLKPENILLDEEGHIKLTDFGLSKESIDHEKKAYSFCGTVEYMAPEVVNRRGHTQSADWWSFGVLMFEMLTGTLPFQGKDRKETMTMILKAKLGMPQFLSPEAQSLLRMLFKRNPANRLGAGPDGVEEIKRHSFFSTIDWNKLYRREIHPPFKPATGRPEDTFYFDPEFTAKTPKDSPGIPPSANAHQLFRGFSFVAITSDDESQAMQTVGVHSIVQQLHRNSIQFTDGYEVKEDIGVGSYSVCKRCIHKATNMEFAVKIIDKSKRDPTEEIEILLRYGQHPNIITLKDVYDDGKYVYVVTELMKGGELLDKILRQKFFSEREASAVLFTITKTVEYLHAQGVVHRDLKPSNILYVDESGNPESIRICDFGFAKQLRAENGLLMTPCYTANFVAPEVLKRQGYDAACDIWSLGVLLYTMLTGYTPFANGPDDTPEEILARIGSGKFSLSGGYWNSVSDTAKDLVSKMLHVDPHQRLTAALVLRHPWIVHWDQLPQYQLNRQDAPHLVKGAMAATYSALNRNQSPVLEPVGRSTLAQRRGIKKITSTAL
Method: as §1

EPHA2 = EPHA2 (Homo sapiens, UniProt P29317); test: biochemical
Method: as §1

EPHB1 = EPHB1 (Homo sapiens, UniProt P54762); test: biochemical
Method: as §1

PKACγ = molecular target: T14, PKACγ (Homo sapiens, UniProt P22612); test: biochemical
T14 construct: gene PRKACG
Method: as §1

EGFR(T790M) = EGFR(T790M) (Homo sapiens, UniProt P00533, T790M); test: biochemical
EGFR(T790M), sequence (P00533 whole entry T790M): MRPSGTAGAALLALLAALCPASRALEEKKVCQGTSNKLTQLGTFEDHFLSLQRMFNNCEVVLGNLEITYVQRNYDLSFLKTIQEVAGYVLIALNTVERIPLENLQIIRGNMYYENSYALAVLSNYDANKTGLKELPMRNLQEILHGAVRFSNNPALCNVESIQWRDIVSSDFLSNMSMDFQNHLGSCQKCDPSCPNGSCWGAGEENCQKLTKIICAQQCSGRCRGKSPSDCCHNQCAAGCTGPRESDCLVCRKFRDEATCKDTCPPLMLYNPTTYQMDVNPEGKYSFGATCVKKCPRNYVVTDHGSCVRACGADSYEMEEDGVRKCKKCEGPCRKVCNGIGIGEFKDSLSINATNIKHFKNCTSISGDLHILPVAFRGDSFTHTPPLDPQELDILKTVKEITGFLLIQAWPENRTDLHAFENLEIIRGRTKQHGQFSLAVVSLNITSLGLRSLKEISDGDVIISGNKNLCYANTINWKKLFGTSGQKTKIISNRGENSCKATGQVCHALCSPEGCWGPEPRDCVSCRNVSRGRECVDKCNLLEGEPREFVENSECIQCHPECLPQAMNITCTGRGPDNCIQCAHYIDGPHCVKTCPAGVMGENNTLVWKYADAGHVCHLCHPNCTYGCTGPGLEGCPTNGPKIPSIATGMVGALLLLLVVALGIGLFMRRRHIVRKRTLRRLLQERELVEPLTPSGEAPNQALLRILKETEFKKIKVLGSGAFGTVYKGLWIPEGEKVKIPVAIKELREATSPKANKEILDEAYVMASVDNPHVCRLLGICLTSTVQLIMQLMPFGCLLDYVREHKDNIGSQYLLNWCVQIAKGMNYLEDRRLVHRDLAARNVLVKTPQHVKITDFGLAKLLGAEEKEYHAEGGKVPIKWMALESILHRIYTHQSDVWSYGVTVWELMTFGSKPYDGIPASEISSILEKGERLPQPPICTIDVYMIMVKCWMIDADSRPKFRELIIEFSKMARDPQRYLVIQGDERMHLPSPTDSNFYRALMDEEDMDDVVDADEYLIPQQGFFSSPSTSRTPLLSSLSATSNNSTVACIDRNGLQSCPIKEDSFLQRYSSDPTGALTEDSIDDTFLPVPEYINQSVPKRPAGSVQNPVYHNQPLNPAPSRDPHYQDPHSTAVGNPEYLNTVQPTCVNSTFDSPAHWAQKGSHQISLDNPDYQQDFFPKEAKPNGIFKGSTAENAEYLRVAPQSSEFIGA
Method: as §1

PKD3 = molecular target: T15, PKD3 (Homo sapiens, UniProt O94806); test: biochemical
T15 construct: gene PRKD3
Method: as §1

MET(D1228H) = MET(D1228H) (Homo sapiens, UniProt P08581, D1228H); test: biochemical
Method: as §1

ITK = ITK (Homo sapiens, UniProt Q08881); test: biochemical
Method: as §1

[1] = molecular target: T16, CDC2-like kinase 1 (CLK1) (Homo sapiens, UniProt P49759); test: biochemical
T16 sequence (P49759 whole entry): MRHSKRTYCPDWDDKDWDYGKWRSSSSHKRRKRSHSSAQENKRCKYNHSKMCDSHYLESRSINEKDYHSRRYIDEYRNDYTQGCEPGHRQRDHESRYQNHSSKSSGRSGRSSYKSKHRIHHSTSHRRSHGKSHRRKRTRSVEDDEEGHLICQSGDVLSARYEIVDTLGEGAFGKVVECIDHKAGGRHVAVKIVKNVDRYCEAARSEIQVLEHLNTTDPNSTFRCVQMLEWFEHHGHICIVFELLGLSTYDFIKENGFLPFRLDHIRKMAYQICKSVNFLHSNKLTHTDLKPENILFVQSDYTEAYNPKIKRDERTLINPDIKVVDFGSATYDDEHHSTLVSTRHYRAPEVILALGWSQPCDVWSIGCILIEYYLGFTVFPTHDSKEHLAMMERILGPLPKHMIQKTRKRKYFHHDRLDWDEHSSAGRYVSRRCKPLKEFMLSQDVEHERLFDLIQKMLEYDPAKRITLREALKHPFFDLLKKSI

[2] = molecular target: T16, CDC2-like kinase 1 (CLK1); design: recombinant GST-tagged human CLK1; details: 1 µM; inhibitor
Method: These assays rely on the phosphorylation of small synthetic peptides developed for each kinase, and detect activity by changes in electrophoretic mobility (MSA assay) or by binding of a fluorescently labelled peptide to a large micro-particle and concomitant polarization increases (IMAP assay). […] Inhibitor (4×), substrate/ATP-Metal (4×), and kinase (2×) solutions were prepared with assay buffer (20 mM HEPES, 0.01% Triton X-100, 2 mM DTT, pH 7.5) and mixed in 384-well plates at room temperature for 1 or 5 h depending on the kinase. Reactions were stopped by the addition of termination buffer (QuickScout Screening Assist MSA; Carna Biosciences). The entire reaction mixture was then applied to a LabChip system (Perkin-Elmer, Waltham, MA, USA) and the product and substrate peptide peaks were separated and quantified, and then heights of product (P) and substrate (S) peptide peaks were calculated. The level of kinase activity was evaluated with the following equation: activity = P/(P + S).

## c1cc(-c2ccc3[nH]ncc3c2)ccn1 [TG693, 5-(4-pyridinyl)-1H-indazole]
JNK3
  inhibition at 1 µM: -4.4%
AurA/TPX2
  inhibition at 1 µM: 8.5%
CaMK1δ
  inhibition at 1 µM: 7%
HIPK2
  inhibition at 1 µM: -2%
MSK1
  inhibition at 1 µM: 1.2%
EPHA3
  inhibition at 1 µM: 0.4%
AKT2
  inhibition at 1 µM: -3%
RET(S891A)
  inhibition at 1 µM: -18%
FLT4
  inhibition at 1 µM: -0.3%
LOK
  inhibition at 1 µM: 5.9%
MST3
  inhibition at 1 µM: 1%
PDGFRβ
  inhibition at 1 µM: 3%
PKCγ
  inhibition at 1 µM: -11.4%
p38α
  inhibition at 1 µM: -0.1%
PYK2
  inhibition at 1 µM: 3.3%
ABL(T315I)
  inhibition at 1 µM: 6.5%
ALK(G1202R)
  inhibition at 1 µM: 3.8%
RET(G691S)
  inhibition at 1 µM: 4.9%
p38β
  inhibition at 1 µM: -1.5%
TXK
  inhibition at 1 µM: -1%
RSK2
  inhibition at 1 µM: 2.1%
EPHA2
  inhibition at 1 µM: 5.7%
EPHB1
  inhibition at 1 µM: 2.5%
PKACγ
  inhibition at 1 µM: 1.5%
EGFR(T790M)
  inhibition at 1 µM: -0.2%
PKD3
  inhibition at 1 µM: -9%
MET(D1228H)
  inhibition at 1 µM: 0.6%
ITK
  inhibition at 1 µM: 2.8%
[1]
  Ki: 0.105 µM
[2]
  %Inhibition: 92.6%
